For assay [1] the following is noted: cited from earlier work.
Assay [2] concerns Viola arvensis, Bromus spp., Lolium spp., Agropyron repens and Urtica urens. The settings on record: Hoechst et al., 1991; cited from earlier work.
For assay [3], the system named is Spermacoce latifolia. The assay can be described thus: Post-emergence herbicidal activity (greenhouse), Spermacoce latifolia, Example 3. It counts as in vivo. As to conditions: 7 DAA. On the procedure:
(§1) The expected efficacy of a combination of L-glufosinate ammonium and the other herbicides was calculated using the well-established Colby method. Any difference between the observed and “expected” efficacy could be attributed to synergy between the two compounds.
In the Colby method, the expected (or predicted) response of a combination of herbicides is calculated by taking the product of the observed response for each individual component of the combination when applied alone, divided by 100, and subtracting this value from the sum of the observed response for each component when applied alone. An unexpected enhancement in efficacy of the combination is then determined by comparing the observed response of the combination to the expected (or predicted) response as calculated from the observed response of each individual component alone. If the observed response of the combination is greater than the expected (or predicted) response, or stated conversely, if the difference between the observed and expected response is greater than zero, then the combination is said to be synergistic or unexpectedly effective (Colby, S. R., Weeds, 1967(15), p. 20-22). […]
The percentage efficacy was calculated after 7 days of application (DAA). The target weed was Spermacoce latifolia, and the concentration of the herbicide and the results are recorded in the Table 3.

For assay [4], the system named is Brachiaria decumbens. The experiment in a line: Post-emergence herbicidal activity (greenhouse), Brachiaria decumbens, Example 2. The assay is classed as in vivo. The settings on record: L-glufosinate ammonium 150, clethodim 45 g a.i./ha. As for the experimental part:
as §1
(§2) In the Colby method, the expected (or predicted) response of a combination of herbicides is calculated by taking the product of the observed response for each individual component of the combination when applied alone, divided by 100, and subtracting this value from the sum of the observed response for each component when applied alone. An unexpected enhancement in efficacy of the combination is then determined by comparing the observed response of the combination to the expected (or predicted) response as calculated from the observed response of each individual component alone. If the observed response of the combination is greater than the expected (or predicted) response, or stated conversely, if the difference between the observed and expected response is greater than zero, then the combination is said to be synergistic or unexpectedly effective (Colby, S. R., Weeds, 1967(15), p. 20-22). The Colby method requires only a single dose of each herbicide applied alone and the mixture of both doses. The formula used to calculate the expected efficacy (EE) which was compared with the observed efficacy (OE) to determine the efficacy of the present disclosure is explained hereinbelow:
(§3) The expected efficacy for a combination of two active ingredients is as follows:
(§4) Evaluation of Post-Emergence Herbicidal Activity
(§5) Methodology: Greenhouse trials were conducted to evaluate the efficacy of the combination comprising L-glufosinate ammonium and clethodim on weeds Eleusine indica, Brachiaria decumbens, Spermacoce latifolia and weedy Glycine max.
(§6) The soil used was sandy clay loam—sand: 68.0%; silt: 8.0%; clay: 24.0%.
(§7) All treatments were in 3 replications per treatment with a spray volume of about 150 L/ha.
Example 2: Efficacy of L-Glufosinate Ammonium and Clethodim on Brachiaria decumbens
The percentage efficacy was calculated after 7, 14, 21, 28 and 35 days of application (DAA). The target weed was Brachiaria decumbens, and the concentration of the herbicides and the results are recorded in the Table 2.

Assay [5] concerns Eleusine indica. The experiment in a line: Post-emergence herbicidal activity (greenhouse), Eleusine indica, Example 1. The assay is classed as in vivo. As to conditions: L-glufosinate ammonium 150. As for the experimental part: as §1, §2, §3, §4, §5, §6, §7
Example 1: Efficacy of L-Glufosinate Ammonium and Clethodim on Eleusine indica
The percentage efficacy was calculated after 3, 7, 28 and 35 days of application (DAA). The target weed was Eleusine indica, and the concentration of the herbicide and the results are recorded in the Table 1.

Assay [6] concerns weedy Glycine max. The experiment in a line: Post-emergence herbicidal activity (greenhouse), weedy Glycine max, Example 4. It counts as in vivo. As to conditions: L-glufosinate ammonium 150. As for the experimental part:
as §1, §2, §3, §4, §5, §6, §7
Example 4: Efficacy of L-Glufosinate Ammonium and Clethodim on Weedy Glycine max
The percentage efficacy was calculated after 3, 7, 14, 21, 28 and 35 days of application (DAA). The target weed was weedy Glycine max, and the concentration of the herbicide and the results are recorded in the Table 4.

With `CP(=O)(O)CC[C@H](N)C(=O)O` [L-Glufosinate, (S)-2-amino-4-(hydroxy(methyl)phosphonoyl)butanoic acid], in assay [1] (vs glyphosate), the “herbicidal activity relative to glyphosate” value is on record as “about four times that of glyphosate”. Moreover, the “herbicidal activity relative to paraquat” value in assay [1] (vs paraquat) is reported as “about twice that of paraquat”. Besides, the “herbicidal activity relative to racemic glufosinate (DL-glufosinate)” value in assay [1] (vs racemic glufosinate) is listed as “more than about twice that of racemic glufosinate”.

For the compound `CP(=O)(O)CCC(N)C(=O)O` (racemic) [Glufosinate, DL-homoalanin-4-yl(methyl)phosphinic acid], the “weed species either not combated, or only weakly combated” value in assay [2] is “either not combated, or only weakly combated”.

As to `CCSC(C)CC1CC(=O)C(/C(CC)=N/OC/C=C/Cl)=C(O)C1` (stereo not drawn) [Clethodim, clethodim], the “% Control” value in assay [3] is reported as 3%; in assay [4] (7 DAA), 15%; in assay [4] (14 DAA), 55%; in assay [4] (21 DAA), 65%; in assay [4] (28 DAA) it was 75%; in assay [4] (35 DAA), 71%. Besides, the “% Control” value is 6.7% in assay [5] (3 DAA); 15% in assay [5] (7 DAA); 81.7% in assay [5] (28 DAA); 84.3% in assay [5] (35 DAA); 0% in assay [6] (3 DAA); 0% in assay [6] (7 DAA). For the same compound, the “% Control” value in assay [6] (14 DAA), in assay [6] (21 DAA), in assay [6] (28 DAA) and in assay [6] (35 DAA) was 0% in each case.

Turning to `CP(=O)(O)CC[C@H](N)C(=O)O.N` [L-glufosinate ammonium, ammonium (2S)-2-amino-4-(methylphosphinato)butyric acid], the “% Control” value in assay [3] amounted to 31.7%; in assay [4] (7 DAA), 50%; in assay [4] (14 DAA), 79.3%; in assay [4] (21 DAA), 82%; in assay [4] (28 DAA), 79.3%; in assay [4] (35 DAA), 79.3%. In addition, the “% Control” value in assay [5] (3 DAA) turned out to be 12.3%; in assay [5] (7 DAA), 50.7%; in assay [5] (28 DAA) it was 59.3%; in assay [5] (35 DAA), 54.3%; in assay [6] (3 DAA), 15%; in assay [6] (7 DAA), 53.3%. The “% Control” value in assay [6] (14 DAA) amounted to 71%; in assay [6] (21 DAA) it was 66.7%; in assay [6] (28 DAA) it was 56.7%; in assay [6] (35 DAA), 41.7%.
